Measured values as given in PubChem BioAssay (NCI).
Values joined by “and” are separate entries in the source; they are usually repeats but may differ in a detail not shown here. Equal entries are not always repeated.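 Where inhibition never reached the appropriate level, the endpoint shown equals the highest concentration tested. Otherwise, values were interpolated linearly from a five-concentration, 48-hour dose response in 96-well plates. TGI marks complete inhibition of growth.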

Tested on: SF-268 CNS
Experiment: NCI anticancer screen, dose series, 48 h

| SMILES | TGI |
| --- | --- |
| NNC(=O)CSc1nc2ccccc2c(=O)n1N | > 100 µM |
| CC(=O)NC1c2ccccc2C(C)(C)C12CCC1(CC2)OCCO1 (stereo not given) | > 100 µM |
| CC1=NNC(=O)C1C(CC(=O)c1c[nH]c2ccccc12)C(=O)O (stereo not given) | > 100 µM |
| CN1COCc2c1ccc1cc3ccc4c(c3nc21)COCN4S(C)(=O)=O | > 100 µM |
| Oc1cccc(-c2nc3cc(F)ccc3s2)c1 | 65.6 µM |
| CC(C(O)Cc1ccccc1)N(C)N=Nc1ccc([N+](=O)[O-])cc1 (stereo not given) | 47.3 µM |
| CC(C)NC(=O)OCCN=c1c2ccccc2ccc2ccccc12 | > 100 µM |
| CN(C)CCOC1(Cc2ccc(F)cc2)CCC(C(C)(C)C)CC1 (stereo not given) | 27.2 µM and 28 µM |
| On1c(-c2ccccc2)nc2ccccc2c1=S | > 100 µM |
| CSc1cnc2ccccc2c1SC1CN(Cc2ccccc2)c2ccccc2C1=O (stereo not given) | > 100 µM |
| C=CC[C@]12C=C(OC)[C@@H](O)[C@](OC)(C(c3cc(OC)c4c(c3)OCO4)[C@H]1C)[C@H]2OC(C)=O (stereo not given in full) | > 100 µM |
| Cn1c2ccccc2c(=NNc2cccc(C(=O)O)c2)c2ccccc21 | 39 µM |

Tested on: SW-620 colon
Experiment: NCI anticancer screen, dose series, 48 h

| SMILES | TGI |
| --- | --- |
| CCOC(=O)NC(Nc1ccc([N+](=O)[O-])cc1)(C(F)(F)F)C(F)(F)F | > 100 µM |
| C[N+]12CCCCC1C(CN1C(=O)Cc3c4ccccc4c(c4ccccc34)CC1=O)CCC2 (stereo not given) | > 100 µM |
| CC(=O)O[C@H]1CC[C@@]2(C)C(=CC[C@H]3[C@@H]4C[C@H](N5CCOCC5)[C@H](OC(C)=O)[C@@]4(C)CC[C@@H]32)C1 | > 100 µM |
| CCC1(C)C=Cc2c(cc(O)c3c(=O)c4ccccc4n(C)c23)O1 (stereo not given) | > 10 µM |
| O=[N+]([O-])/C(C(Cl)=C(Cl)Cl)=C(\N1CCCCC1)n1cncn1 | 36.9 µM |
| O=C1c2cccnc2-c2nccc3c2c1nc1cc(Br)ccc13 | 0.162 µM |
| NC(CCC(=O)NC(CSCC1C(=O)Nc2ccccc21)C(=O)NCC(=O)O)C(=O)O (stereo not given) | 10.7 µM |
| NNC(=O)CSc1nc2ccccc2c(=O)n1N | > 100 µM |
| CC(=O)NC1c2ccccc2C(C)(C)C12CCC1(CC2)OCCO1 (stereo not given) | > 100 µM |
| CC1=NNC(=O)C1C(CC(=O)c1c[nH]c2ccccc12)C(=O)O (stereo not given) | > 100 µM |
| CN1COCc2c1ccc1cc3ccc4c(c3nc21)COCN4S(C)(=O)=O | > 100 µM |
| Oc1cccc(-c2nc3cc(F)ccc3s2)c1 | > 100 µM |
| CC(C(O)Cc1ccccc1)N(C)N=Nc1ccc([N+](=O)[O-])cc1 (stereo not given) | 60.6 µM |
| CC(C)NC(=O)OCCN=c1c2ccccc2ccc2ccccc12 | > 100 µM |
| CN(C)CCOC1(Cc2ccc(F)cc2)CCC(C(C)(C)C)CC1 (stereo not given) | 16.6 µM and 20.7 µM |
| On1c(-c2ccccc2)nc2ccccc2c1=S | > 100 µM |
| CSc1cnc2ccccc2c1SC1CN(Cc2ccccc2)c2ccccc2C1=O (stereo not given) | > 100 µM |
| C=CC[C@]12C=C(OC)[C@@H](O)[C@](OC)(C(c3cc(OC)c4c(c3)OCO4)[C@H]1C)[C@H]2OC(C)=O (stereo not given in full) | > 100 µM |
| Cn1c2ccccc2c(=NNc2cccc(C(=O)O)c2)c2ccccc21 | 35.5 µM |

Tested on: RXF 393 renal
Experiment: NCI anticancer screen, dose series, 48 h

| SMILES | TGI [µM] |
| --- | --- |
| CCOC(=O)NC(Nc1ccc([N+](=O)[O-])cc1)(C(F)(F)F)C(F)(F)F | 97.1 |
| C[N+]12CCCCC1C(CN1C(=O)Cc3c4ccccc4c(c4ccccc34)CC1=O)CCC2 (stereo not given) | > 100 |
| CC(=O)O[C@H]1CC[C@@]2(C)C(=CC[C@H]3[C@@H]4C[C@H](N5CCOCC5)[C@H](OC(C)=O)[C@@]4(C)CC[C@@H]32)C1 | > 100 |
| CCC1(C)C=Cc2c(cc(O)c3c(=O)c4ccccc4n(C)c23)O1 (stereo not given) | > 10 |
| O=[N+]([O-])/C(C(Cl)=C(Cl)Cl)=C(\N1CCCCC1)n1cncn1 | 24.2 |
| O=C1c2cccnc2-c2nccc3c2c1nc1cc(Br)ccc13 | 0.355 |
| NC(CCC(=O)NC(CSCC1C(=O)Nc2ccccc21)C(=O)NCC(=O)O)C(=O)O (stereo not given) | 2.33 |
| NNC(=O)CSc1nc2ccccc2c(=O)n1N | 95.5 |
| CC(=O)NC1c2ccccc2C(C)(C)C12CCC1(CC2)OCCO1 (stereo not given) | > 100 |
| CC1=NNC(=O)C1C(CC(=O)c1c[nH]c2ccccc12)C(=O)O (stereo not given) | > 100 |
| CN1COCc2c1ccc1cc3ccc4c(c3nc21)COCN4S(C)(=O)=O | > 100 |
| Oc1cccc(-c2nc3cc(F)ccc3s2)c1 | > 100 |
| CC(C(O)Cc1ccccc1)N(C)N=Nc1ccc([N+](=O)[O-])cc1 (stereo not given) | 23.7 |
| CC(C)NC(=O)OCCN=c1c2ccccc2ccc2ccccc12 | > 100 |
